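Protocol summary: plate cells (96-well), add compound at 5 concentrations, incubate 48 h, interpolate endpoints linearly. GI50 = concentration required for 50% inhibition of growth.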 Activity calls are given as the source filed them. No stated cut-off is given here; in the data, active = GI50 up to about 1.1 µM and inactive = higher.
What was measured:
Assay in all cases: NCI-60 cell line screen, 48 h
786-0 = tested on: 786-0
ACHN = tested on: ACHN
CCRF-CEM = tested on: CCRF-CEM
EKVX = tested on: EKVX
IGROV-1 = tested on: IGROV-1
LOX IMVI = tested on: LOX IMVI
MCF7 = tested on: MCF7
MOLT-4 = tested on: MOLT-4
NCI-H226 = tested on: NCI-H226
NCI-H23 = tested on: NCI-H23
NCI-H460 = tested on: NCI-H460
NCI/ADR-RES = tested on: NCI/ADR-RES
OVCAR-3 = tested on: OVCAR-3
OVCAR-5 = tested on: OVCAR-5
OVCAR-8 = tested on: OVCAR-8
SF-539 = tested on: SF-539
SK-MEL-28 = tested on: SK-MEL-28
UACC-257 = tested on: UACC-257
NCI-H522 = tested on: NCI-H522
T47D = tested on: T47D

SMILES	GI50 (786-0)	GI50 (ACHN)	GI50 (CCRF-CEM)	GI50 (EKVX)	GI50 (IGROV-1)	GI50 (LOX IMVI)	GI50 (MCF7)	GI50 (MOLT-4)	GI50 (NCI-H226)	GI50 (NCI-H23)	GI50 (NCI-H460)	GI50 (NCI/ADR-RES)	GI50 (OVCAR-3)	GI50 (OVCAR-5)	GI50 (OVCAR-8)	GI50 (SF-539)	GI50 (SK-MEL-28)	GI50 (UACC-257)	GI50 (NCI-H522)	GI50 (T47D)
CC1CCC2C(C)(C)CC3(C)CCC1C23O (configuration not stated)	15.6 µM (inactive)	16.1 µM (inactive)	4.02 µM (inactive)	15.1 µM (inactive)	14.6 µM (inactive)	15.3 µM (inactive)	15.8 µM (inactive)	11.2 µM (inactive)	15.3 µM (inactive)	16.1 µM (inactive)	17 µM (inactive)	14.6 µM (inactive)	16.3 µM (inactive)	18.9 µM (inactive)	17.2 µM (inactive)	17.8 µM (inactive)	16.3 µM (inactive)	16.2 µM (inactive)		
CCOP(=O)(OCC)C(c1ccc(F)cc1)N(C(=O)NC(F)(F)F)c1ccc(OC)cc1 (configuration not stated)	> 100 µM (inactive)	> 100 µM (inactive)	> 100 µM (inactive)	> 100 µM (inactive)	> 100 µM (inactive)	> 100 µM (inactive)	> 100 µM (inactive)	> 100 µM (inactive)	> 100 µM (inactive)	> 100 µM (inactive)	> 100 µM (inactive)	> 100 µM (inactive)	> 100 µM (inactive)	> 100 µM (inactive)	> 100 µM (inactive)	> 100 µM (inactive)	> 100 µM (inactive)	> 100 µM (inactive)	> 100 µM (inactive)	
CN1C2CCC1CC(CCOC(c1ccc(F)cc1)c1ccc(F)cc1)C2 (configuration not stated)	15.9 µM (inactive)	17.1 µM (inactive)	18.4 µM (inactive)	13.9 µM (inactive)	17.3 µM (inactive)	16.6 µM (inactive)		11.9 µM (inactive)	15.3 µM (inactive)	19.5 µM (inactive)	17.5 µM (inactive)	17.5 µM (inactive)	16 µM (inactive)	15.9 µM (inactive)	17.3 µM (inactive)	15.9 µM (inactive)	16 µM (inactive)	17.1 µM (inactive)	17.1 µM (inactive)	18.5 µM (inactive)
O=C1CCc2nc3ncccc3cc2C1	> 100 µM (inactive)	> 100 µM (inactive)	30.5 µM (inactive)	> 100 µM (inactive)	58.2 µM (inactive)			29.9 µM (inactive)	> 100 µM (inactive)	> 100 µM (inactive)	99.5 µM (inactive)	> 100 µM (inactive)	47.2 µM (inactive)	> 100 µM (inactive)			> 100 µM (inactive)	> 100 µM (inactive)	22.2 µM (inactive)	> 100 µM (inactive)
O=C1CCCCC/C1=C\c1cccc([N+](=O)[O-])c1	33.2 µM (inactive)	33.3 µM (inactive)	12.2 µM (inactive)	33.7 µM (inactive)	19.4 µM (inactive)		48.3 µM (inactive)	15.5 µM (inactive)			30.1 µM (inactive)	34.1 µM (inactive)	28.8 µM (inactive)	46.2 µM (inactive)	33 µM (inactive)	21.5 µM (inactive)	38.1 µM (inactive)	22.4 µM (inactive)		36 µM (inactive)
C[C@H]1O[C@@H](O[C@H]2[C@@H](O)C[C@H](O[C@H]3[C@@H](O)C[C@H](O[C@H]4CC[C@@]5(C)[C@H](CC[C@@H]6[C@@H]5CC[C@]5(C)[C@@H](C7=CC(=O)OC7)[C@@H](O)C[C@]65O)C4)O[C@@H]3C)O[C@@H]2C)C[C@H](O)[C@@H]1O [GITOXIN]	0.151 µM (active)	0.0948 µM (active)	0.109 µM (active)	0.164 µM (active)	0.416 µM (active)	0.215 µM (active)		0.0277 µM (active)	0.855 µM (active)	0.0869 µM (active)	0.132 µM (active)	0.197 µM (active)	0.13 µM (active)	0.656 µM (active)	0.226 µM (active)	0.1 µM (active)	1.15 µM (inactive)	0.522 µM (active)	0.0238 µM (active)	0.42 µM (active)

Reference: ChEMBL document CHEMBL1201862, “PubChem BioAssay data set” (2004)
